ChEMBL document CHEMBL1201862, “PubChem BioAssay data set” (2004)
Active and inactive are the calls of the source.

Assays:
[1] = inhibitors of SNCA 5'UTR-driven reporter translation, confirmation, H4 neuroglioma cells, luminescence (AID 1988); assay type: functional, cell-based
[2] = C. albicans growth with fluconazole, confirmation, fluorescence, retest (AID 2467); assay type: functional, cell-based
[3] = cells; assay type: functional, cell-based
[4] = Luminescence-based counterscreen assay for KLF5 inhibitors: dose response cell-based high throughput screening assay to identify cytotoxic compounds using the IEC-6 intestinal epithelial cell line. [Related pubchem assays: 1700 (Primary screen.), 1834 (Confirmation screen.), 1858 (Summary AID.), 1905 (Counterscreen.)]; assay type: functional
[5] = test system: BJ; experiment: cytotoxicity toward BJ-TERT fibroblasts, dose response, cell-based, RAS-independent, luminescence (AID 1933); assay type: functional; conditions: Homo sapiens
[6] = test system: Streptococcus; experiment: Group A Streptococcus viability loss, dose response, counter-screen for streptokinase expression inhibitor project, luminescence, BacTiterGlo (AID 1915); assay type: functional, organism-based;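 further: potency for reduction of bacterial viability or growth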
[7] = test system: Streptococcus sp. 'group A'; experiment: growth inhibition of control SK(-) GAS strain, dose response, counter-screen for streptokinase expression inhibitor project, luminescence, kanamycin, BacTiterGlo, confirmation (AID 1900); assay type: functional, organism-based
[8] = cytotoxicity toward DRD oncogenic fibroblasts, dose response, cell-based, non-viral oncogenic, luminescence (AID 1934); assay type: functional; conditions: Homo sapiens
[9] = Counterscreen for AddAB inhibitors: absorbance-based bacterial cell-based high throughput dose response assay for inhibitors of bacterial viability. [Related pubchem assays (depositor defined):AID435030, AID449728, AID449731, AID488942, AID488955, AID488956]; assay type: functional
[10] = inhibitors of HIV Env-driven cell fusion, dose response, cherry-pick (AID 652057); assay type: functional, cell-based
[11] = target: T1, Replicative DNA helicase DnaB (Mycobacterium tuberculosis, UniProt P9WMR3); experiment: DnaB intein splicing inhibitors, dose response, biochemical, cell-free fluorescence (AID 449749); assay type: functional
T1 sequence (P9WMR3 whole entry): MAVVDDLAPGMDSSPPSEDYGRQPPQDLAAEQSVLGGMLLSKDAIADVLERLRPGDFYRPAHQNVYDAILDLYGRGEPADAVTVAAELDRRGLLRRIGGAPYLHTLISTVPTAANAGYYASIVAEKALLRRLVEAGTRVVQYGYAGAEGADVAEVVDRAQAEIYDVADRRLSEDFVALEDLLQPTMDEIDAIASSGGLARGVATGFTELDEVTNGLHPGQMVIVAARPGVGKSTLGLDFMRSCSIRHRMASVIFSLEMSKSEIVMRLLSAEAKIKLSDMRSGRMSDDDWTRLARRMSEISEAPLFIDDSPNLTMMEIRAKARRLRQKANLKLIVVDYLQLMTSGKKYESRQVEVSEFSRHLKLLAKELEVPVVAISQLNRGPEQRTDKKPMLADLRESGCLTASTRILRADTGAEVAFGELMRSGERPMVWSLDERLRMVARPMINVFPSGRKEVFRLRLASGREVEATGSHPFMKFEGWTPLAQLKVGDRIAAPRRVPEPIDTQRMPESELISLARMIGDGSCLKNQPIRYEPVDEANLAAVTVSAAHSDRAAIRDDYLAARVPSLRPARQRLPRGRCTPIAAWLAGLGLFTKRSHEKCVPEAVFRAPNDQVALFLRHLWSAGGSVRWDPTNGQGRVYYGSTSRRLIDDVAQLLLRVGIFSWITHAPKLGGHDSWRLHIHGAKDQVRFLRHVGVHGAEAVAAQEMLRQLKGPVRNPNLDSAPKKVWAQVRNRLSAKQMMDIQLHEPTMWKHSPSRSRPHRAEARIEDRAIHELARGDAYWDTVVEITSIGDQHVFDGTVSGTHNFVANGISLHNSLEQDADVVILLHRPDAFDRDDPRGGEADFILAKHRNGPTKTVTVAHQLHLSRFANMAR

[12] = target: T2, Mitochondrial peptide methionine sulfoxide reductase (Bos taurus, UniProt P54149); assay type: functional;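 further: absorbance read-out, biochemical high-throughput dose-response screen for MsrA inhibitors, confirmatory; recombinant bovine MsrA coupled to E. coli TrxB with NADPH and selenocystamine; potency is for inhibitors of MsrA activity on DMSO substrate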
T2 sequence (P54149 whole entry): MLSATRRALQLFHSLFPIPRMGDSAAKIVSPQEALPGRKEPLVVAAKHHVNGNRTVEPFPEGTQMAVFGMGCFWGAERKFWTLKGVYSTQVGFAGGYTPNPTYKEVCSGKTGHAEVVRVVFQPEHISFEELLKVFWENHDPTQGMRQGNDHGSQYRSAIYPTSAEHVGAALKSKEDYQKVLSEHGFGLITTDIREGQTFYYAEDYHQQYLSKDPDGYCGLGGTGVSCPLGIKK

[13] = inhibitors of clade B AD8 Env fusion, dose response, cell-based, cherry-pick (AID 652062); assay type: functional;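 further: luciferase signal from cell-cell fusion driven by HIV-1 clade B AD8 Env; potency is for inhibitors of fusion seen as a drop in luminescence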
[14] = HepG2 cell cytotoxicity, dose response, cytotoxicity control for Shn3 inhibitor project, CellTiter-Glo, cherry-picked (AID 624134); assay type: functional, cell-based
[15] = target: ATP-dependent molecular chaperone HSP82 (Candida albicans (strain WO-1) (Yeast), UniProt C4YTQ8); experiment: loss of DOC-induced GRE-beta-galactosidase reporter signal, dose response, Hsp90 inhibitor project, S. cerevisiae, luminescence (AID 2400); assay type: functional, cell-based;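 further: beta-galactosidase luminescence from glucocorticoid response element reporter as proxy for Hsp90 function; inhibitor potency where signal loss means Hsp90 inhibition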
Chain of ATP-dependent molecular chaperone HSP82 (C4YTQ8 whole entry): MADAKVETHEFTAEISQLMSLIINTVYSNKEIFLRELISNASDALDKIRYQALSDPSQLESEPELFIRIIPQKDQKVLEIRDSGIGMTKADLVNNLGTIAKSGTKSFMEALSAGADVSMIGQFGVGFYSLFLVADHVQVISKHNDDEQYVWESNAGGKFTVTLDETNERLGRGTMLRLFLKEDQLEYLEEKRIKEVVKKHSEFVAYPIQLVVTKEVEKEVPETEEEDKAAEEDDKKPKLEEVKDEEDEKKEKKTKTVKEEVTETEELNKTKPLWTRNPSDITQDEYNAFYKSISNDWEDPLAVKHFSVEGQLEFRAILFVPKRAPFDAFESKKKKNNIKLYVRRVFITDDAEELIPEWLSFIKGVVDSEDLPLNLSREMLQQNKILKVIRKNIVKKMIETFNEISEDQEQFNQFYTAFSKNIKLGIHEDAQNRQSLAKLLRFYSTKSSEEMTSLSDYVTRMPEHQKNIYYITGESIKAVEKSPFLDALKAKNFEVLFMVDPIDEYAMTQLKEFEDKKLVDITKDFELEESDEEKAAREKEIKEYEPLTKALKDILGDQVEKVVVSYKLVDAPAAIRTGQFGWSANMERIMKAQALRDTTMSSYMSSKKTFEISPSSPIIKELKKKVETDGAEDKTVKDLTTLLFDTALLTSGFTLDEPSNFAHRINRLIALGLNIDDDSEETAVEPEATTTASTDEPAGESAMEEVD

[16] = HepG2 cell cytotoxicity, dose response, cytotoxicity control for non-replicating M. tuberculosis project (AID 489018); assay type: functional; conditions: Mycobacterium tuberculosis
[17] = target: T3, Type-1 angiotensin II receptor (Homo sapiens, UniProt P30556); experiment: AT1 receptor antagonists, dose response, selectivity assay for APJ receptor antagonist project, cell-based, uHTS hits (AID 463214); assay type: functional;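 further: antagonist potency against angiotensin II stimulated AT1 response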
T3 sequence (P30556 whole entry): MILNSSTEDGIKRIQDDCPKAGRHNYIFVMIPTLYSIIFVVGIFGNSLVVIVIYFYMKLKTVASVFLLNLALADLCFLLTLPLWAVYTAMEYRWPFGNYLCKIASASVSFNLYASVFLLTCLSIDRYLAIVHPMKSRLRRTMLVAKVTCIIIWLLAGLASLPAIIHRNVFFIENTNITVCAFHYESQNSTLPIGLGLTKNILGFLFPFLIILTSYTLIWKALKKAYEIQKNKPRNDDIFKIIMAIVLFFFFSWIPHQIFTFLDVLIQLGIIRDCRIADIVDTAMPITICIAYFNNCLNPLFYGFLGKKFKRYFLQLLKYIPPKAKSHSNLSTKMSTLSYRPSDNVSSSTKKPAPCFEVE

[18] = control 3'UTR Renilla luciferase suppression, dose response, counter-screen for Shn3 inhibitor project, cell-based, Clone20-Shn3RL, cherry-picked (AID 624133); assay type: functional
[19] = Vero E6 cell cytotoxicity, dose response, cytotoxicity control for non-replicating M. tuberculosis project, secondary assay (AID 492998); assay type: functional, VeroE6; conditions: Vero C1008
[20] = cytotoxicity in MIN6 insulinoma cells, dose response, cytotoxicity control, cell-based, mouse insulinoma (AID 2122); assay type: functional;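 further: confirmatory high-throughput counterscreen run to flag cytotoxic compounds; mouse MIN-6 beta cells carrying an insulin promoter eGFP reporter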
[21] = insulin promoter down-regulators in MIN6 cells, imaging, high-content screening, mouse beta cells (AID 1628); assay type: functional

With COc1cccc(/C=N/Nc2ccc([N+](=O)[O-])cn2)c1O the EC50 [1] was 0.54 µM (active), the EC50 [2] was 1.51 µM (active) and the EC50 [3] was > 350 µM (not active). For the same compound, the IC50 [4] was 16.2 µM (not active), the EC50 [5] was 3.31 µM (inconclusive) and the EC50 [6] was 1.65 µM (active). The EC50 [7] was 0.912 µM (active), the EC50 [8] was 3.96 µM (active) and the IC50 [9] was > 118 µM (inactive).

For CCc1ccc(S(=O)(=O)/N=C2\C=C(Nc3ccc(C(=O)O)cc3)C(=O)c3ccccc32)cc1, the AC50 [10] was 8.79 µM (active), the AC50 [11] was > 380 µM (inconclusive) and the EC50 [6] was 6.26 µM (active). For the same compound, the EC50 [7] was 0.451 µM (active), the IC50 [12] was 5 µM (active) and the AC50 [13] was 3.52 µM (active).

With Oc1c(C(c2ccccc2Cl)N2CCCC2)ccc2cccnc12 (stereo unspecified) the AC50 [14] was 46.9 µM (active), the EC50 [15] was > 160 µM (inactive) and the CC50 [16] was 17.6 µM (active). For the same compound, the EC50 [2] was 1.08 µM (active), the EC50 [3] was 27.4 µM (active) and the IC50 [17] was 12 µM (active). The IC50 [9] was 95.3 µM (inactive), the AC50 [18] was 6.38 µM (active) and the CC50 [19] was 9.56 µM (active). For the same compound, the IC50 [20] was 4.59 µM (active) and the IC50 [21] was 5.2 µM (active).
